Test results taken from patent US20060190186A1, “Viral polymerase and modulation thereof” (Melbourne Health, priority 2003, published 2006).

What was measured:
[1] = test system: HBV precore mutant (G1896A); test: Antiviral testing: HBV replicative intermediates by Southern blot in Huh7 cells transfected with HBV plasmid (precore mutant); assay type: cell-based; conditions: Hepatitis B virus, Huh-7
From the text: (§1) The plasmid containing 1.3×HBV genome in the vector pBlueBac4.5 was used as the infectious HBV clone. This clone already had the precore mutation at G1896A. The point mutation were created by site directed mutagenesis using the commercial kits according to the manufacturers specifications (QuikChange, Stratagene). A HBV recombinant encoding the reverse transcriptase mutations rtS85A was created. The nucleotide sequence of the plasmid and the point mutations generated by site directed mutagenesis were confirmed by sequencing using the ABI Prism Big Dye Terminator Cycle Sequencing Ready Reaction Kit according to the manufacturer's specifications (Perkin Elmer, Cetus Norwalk, Conn.).
(§2) Huh7 cells were seeded at approximately 20-40% confluency and then were grown for 16-24 hours before transfection. Plasmid DNA containing HBV encoding specific mutations was transfected using Fugene according to the manufacturers protocols.
ADV and LMV were resuspended in sterile water, aliquoted, and frozen at −20° C. to avoid repeated freezing and thawing of the drug. […]
HBV core particles were isolated from the cytoplasmic fraction of Huh7 cells lysis buffer which includes 0.5% w/v NP-40. […] After southern blot analysis a BioRad Phosphoimager and the Quantity One Analysis software (BioRad, Hecules Calif.) was used to analyze suitable exposures of Southern blots. […]

[2] = test system: recombinant HBV encoding the mutant rtS85A; test: Antiviral testing: HBV replicative intermediates by Southern blot in Huh7 cells transfected with HBV plasmid encoding rtS85A; assay type: cell-based, hepatitis B virus; conditions: for IC50: Hepatitis B virus, Huh-7
From the text: as §1, §2
ADV and LMV were resuspended in sterile water, aliquoted, and frozen at −20° C. to avoid repeated freezing and thawing of the drug. Medium containing ADV or LMV were prepared daily as needed. In experiments in which ADV or LMV treatment was initiated […] transfection, Huh7 cells were exposed to the indicated concentration of ADV or LMV immediately after transfection with the HBV plasmid.
HBV core particles were isolated from the cytoplasmic fraction of Huh7 cells lysis buffer which includes 0.5% w/v NP-40. Cytoplasmic extracts were treated with DNAse, adjusted to 10 mmol/l […] and unprotected DNA was removed by an incubation to 500 µg/ml Proteinase K for 1.5 hours at 37° C. HBV DNA in the samples were then extracted using commercial DNA extraction kits such as Qiagen (DNA extraction) or in-house methods using sequential phenol and chloroform extractions, and the nucleic acids were recovered by ethanol precipitation. […] After southern blot analysis a BioRad Phosphoimager and the Quantity One Analysis software (BioRad, Hecules Calif.) was used to analyze suitable exposures of Southern blots. […]

Compound	IC50 [1]	IC50 [2]	sensitivity of recombinant HBV to drug ([2]; recombinant HBV encoding the mutant rtS85A)
Nc1ncnc2c1ncn2CCOCP(=O)(O)O [ADV, adefovir]	0.43 µM	5 to 10 µM	reduced sensitivity
Nc1ccn([C@@H]2CS[C@H](CO)O2)c(=O)n1 [LMV, (−)-β-2′-deoxy-3′-thiacytidine]	0.005 µM	0.01 µM	–
